In the test the target is T1, KRAS G12C 1-169, his-tagged protein, GDP-loaded (Homo sapiens, UniProt P01116, G12C).
T1 construct: KRAS G12C 1-169, his-tagged protein, GDP-loaded
The test can be described thus: Biochemical assay: covalent modification of KRAS G12C measured by mass spectrometry (RapidFire/TOF or Q-Exactive). As to conditions: covalent binding to (modification of) KRAS G12C after a ten minute incubation period. The class given is binding. The essentials:
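Intact-mass readout (TOF or Q-Exactive, charge-envelope deconvolution) gives percent covalent adduct from modified and unmodified species. Compound at 10, 30 or 100 μM was incubated at room temperature for 10 min to 24 h with 2 μM or 0.5 μM GDP-bound KRAS G12C 1-169 in Hepes/NaCl/MgCl2 buffer, then acid-quenched.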

Molecules are shown by their SMILES.

As for `C=CC(=O)N1C[C@H](C)N(c2nc(OCCCN(CC)CC)nc3c(F)c(-c4c(C)ccc5[nH]nc(N)c45)c(Cl)cc23)C[C@H]1C` [Compound 69, 1-((2R,5S)-4-(7-(3-amino-5-methyl-1H-indazol-4-yl)-6-chloro-2-(3-(diethylamino)propoxy)-8-fluoroquinazolin-4-yl)-2,5-dimethylpiperazin-1-yl)prop-2-en-1-one], the Binding % result is reported as “+++ (+++ indicates binding activity greater than 80%)”. Take `C=CC(=O)N1C[C@H](C)N(c2nc(OCCN3CCC(F)CC3)nc3c(F)c(-c4c(C)ccc5[nH]nc(N)c45)c(Cl)cc23)C[C@H]1C` [Compound 70, 1-((2R,5S)-4-(7-(3-amino-5-methyl-1H-indazol-4-yl)-6-chloro-8-fluoro-2-(2-(4-fluoropiperidin-1-yl)ethoxy)quinazolin-4-yl)-2,5-dimethylpiperazin-1-yl)prop-2-en-1-one]: the Binding % entry is given as “+++ (+++ indicates binding activity greater than 80%)”. With `C=CC(=O)N1C[C@H](C)N(c2nc(N3CC(N(C)C)C3)nc3c(F)c(-c4c(C)ccc5c(N)noc45)c(Cl)cc23)C[C@H]1C` [Compound 71, 1-((2R,5S)-4-(7-(3-amino-6-methylbenzo[d]isoxazol-7-yl)-6-chloro-2-(3-(dimethylamino)azetidin-1-yl)-8-fluoroquinazolin-4-yl)-2,5-dimethylpiperazin-1-yl)prop-2-en-1-one] the entry was “+ (+ indicates binding activity greater than 0% and up to 50%)”.

On to `C=CC(=O)N1C[C@H](C)N(c2nc(NCCCN3CCOCC3)nc3c(F)c(-c4c(C)ccc5[nH]nc(N)c45)c(Cl)cc23)C[C@H]1C` [Compound 72, 1-((2R,5S)-4-(7-(3-amino-5-methyl-1H-indazol-4-yl)-6-chloro-8-fluoro-2-(3-morpholinopropylami-no)quinazolin-4-yl)-2,5-dimethylpiperazin-1-yl)prop-2-en-1-one], for which the Binding % result is recorded as “+++ (+++ indicates binding activity greater than 80%)”.

As to `C=CC(=O)N1C[C@H](C)N(c2nc(NCCCN(C)C)nc3c(F)c(-c4c(C)ccc5onc(N)c45)c(Cl)cc23)C[C@H]1C` [Compound 73, 1-((2R,5S)-4-(7-(3-amino-5-methylbenzo[d]isoxa-zol-4-yl)-6-chloro-2-(3-(dimethylamino)propyl-amino)-8-fluoroquinazolin-4-yl)-2,5-dimethylpiperazin-1-yl)prop-2-en-1-one], the Binding % result was “+ (+ indicates binding activity greater than 0% and up to 50%)”.

With `C=CC(=O)N1C[C@H](C)N(c2nc(Nc3cnn(C)c3)nc3c(F)c(-c4c(C)ccc5onc(N)c45)c(Cl)cc23)C[C@H]1C` [Compound 74, 1-((2R,5S)-4-(7-(3-amino-5-methylbenzo[d]osoxa-zol-4-yl)-6-chloro-8-fluoro-2-(1-methyl-1H-pyrazol-4-ylamino)quinazolin-4-yl)-2,5-dimethylpiperazin-1-yl)prop-2-en-1-one], the Binding % result is “+ (+ indicates binding activity greater than 0% and up to 50%)”.

`C=CC(=O)N1C[C@H](C)N(c2nc(N3CC(N(C)C)C3)nc3c(F)c(-c4cncc5[nH]ncc45)c(Cl)cc23)C[C@H]1C` [Compound 77, 1-((2R,5S)-4-(6-chloro-2-(3-(dimethylamino)azetidin-1-yl)-8-fluoro-7-(1H-pyrazolo[3,4-c]pyridin-4-yl)quinazolin-4-yl)-2,5-dimethylpiperazin-1-yl)prop-2-en-1-one]: the Binding % entry was “+ (+ indicates binding activity greater than 0% and up to 50%)”. Under `C=CC(=O)N1C[C@H](C)N(c2nc(OCCN(CC)CC)nc3c(F)c(-c4c(C)ccc5[nH]nc(N)c45)c(Cl)cc23)C[C@H]1C` [Compound 78, 1-((2R,5S)-4-(7-(3-amino-5-methyl-1H-indazol-4-yl)-6-chloro-2-(2-(diethylamino)ethoxy)-8-fluoroquinazolin-4-yl)-2,5-dimethylpiperazin-1-yl)prop-2-en-1-one] stands “+++ (+++ indicates binding activity greater than 80%)”; under `C=CC(=O)N1C[C@H](C)N(c2nc(NCCN3CCOCC3)nc3c(F)c(-c4c(C)ccc5[nH]nc(N)c45)c(Cl)cc23)C[C@H]1C` [Compound 79, 1-((2R,5S)-4-(7-(3-amino-5-methyl-1H-indazol-4-yl)-6-chloro-8-fluoro-2-(2-morpholinoethylamino)quinazolin-4-yl)-2,5-dimethylpiperazin-1-yl)prop-2-en-1-one], “+++ (+++ indicates binding activity greater than 80%)”. With `C=CC(=O)N1C[C@H](C)N(c2nc(NC3CCN(C4CC4)CC3)nc3c(F)c(-c4c(C)ccc5[nH]nc(N)c45)c(Cl)cc23)C[C@H]1C` [Compound 80, 1-((2R,5S)-4-(7-(3-amino-5-methyl-1H-indazol-4-yl)-6-chloro-2-(1-cyclopropylpiperidin-4-ylamino)-8-fluoroquinazolin-4-yl)-2,5-dimethylpiperazin-1-yl)prop-2-en-1-one] the entry was “+++ (+++ indicates binding activity greater than 80%)”. With `C=CC(=O)N1C[C@H](C)N(c2nc(OCCN3CCOCC3)nc3c(F)c(-c4c(C)ccc5onc(N)c45)c(Cl)cc23)C[C@H]1C` [Compound 81, 1-((2R,5S)-4-(7-(3-amino-5-methylbenzo[d]isoxazol-4-yl)-6-chloro-8-fluoro-2-(2-morpholinoethoxy)quina-zolin-4-yl)-2,5-dimethylpiperazin-1-yl)prop-2-en-1-one], the Binding % entry is given as “++ (++ indicates binding activity from 50 to 80%)”.

As to `C=CC(=O)N1C[C@H](C)N(c2nc(N3CC(N(C)C)C3)nc3c(F)c(-c4c(C)ccc5[nH]c(=O)[nH]c45)c(Cl)cc23)C[C@H]1C` [Compound 82, 4-(4-((2S,5R)-4-acryloyl-2,5-dimethylpiperazin-1-yl)-6-chloro-2-(3-(dimethylamino)azetidin-1-yl)-8-fluoroquinazolin-7-yl)-5-methyl-1H-benzo[d]imidazol-2(3H)-one], the Binding % result is listed as “+++ (+++ indicates binding activity greater than 80%)”.

Take `C=CC(=O)N1C[C@H](C)N(c2nc(OCCN3CCC(F)(F)C3)nc3c(F)c(-c4c(C)ccc5onc(N)c45)c(Cl)cc23)C[C@H]1C` [Compound 85, 1-((2R,5S)-4-(7-(3-amino-5-methylbenzo[d]isoxazol-4-yl)-6-chloro-2-(2-(3,3-difluoropyrrolidin-1-yl)ethoxy)-8-fluoroquinazolin-4-yl)-2,5-dimethylpiperazin-1-yl)prop-2-en-1-one]: the Binding % result is on record as “+++ (+++ indicates binding activity greater than 80%)”. With `C=CC(=O)N1C[C@H](C)N(c2nc(N3CC(N(C)C)C3)nc3c(F)c(-c4c(C)ccc5nn[nH]c45)c(Cl)cc23)C[C@H]1C` [Compound 86, 1-((2R,5S)-4-(6-chloro-2-(3-(dimethylamino)azetidin-1-yl)-8-fluoro-7-(6-methyl-1H-benzo[d][1,2,3]triazol-7-yl)quinazolin-4-yl)-2,5-dimethylpiperazin-1-yl)prop-2-en-1-one] the entry was “+ (+ indicates binding activity greater than 0% and up to 50%)”; with `C=CC(=O)N1C[C@H](C)N(c2nc(NCCc3ncccn3)nc3c(F)c(-c4c(C)ccc5onc(N)c45)c(Cl)cc23)C[C@H]1C` [Compound 91, 1-((2R,5S)-4-(7-(3-amino-5-methylbenzo[d]isoxazol-4-yl)-6-chloro-8-fluoro-2-(2-(pyrimidin-2-yl)ethylamino)quinazo-lin-4-yl)-2,5-dimethylpiperazin-1-yl)prop-2-en-1-one], “+++ (+++ indicates binding activity greater than 80%)”. Under `C=CC(=O)N1C[C@H](C)N(c2nc(NCCN3CCOCC3)nc3c(F)c(-c4c(C)ccc5onc(N)c45)c(Cl)cc23)C[C@H]1C` [Compound 92, 1-((2R,5S)-4-(7-(3-amino-5-methylbenzo[d]isoxazol-4-yl)-6-chloro-8-fluoro-2-(2-morpholinoethylamino)quinazolin-4-yl)-2,5-dimethylpiperazin-1-yl)prop-2-en-1-one] stands “++ (++ indicates binding activity from 50 to 80%)”; under `C=CC(=O)N1C[C@H](C)N(c2nc(NCCC(=O)N3CCCC3)nc3c(F)c(-c4c(C)ccc5onc(N)c45)c(Cl)cc23)C[C@H]1C` [Compound 93, 1-((2R,5S)-4-(7-(3-amino-5-methylbenzo[d]isoxazol-4-yl)-6-chloro-8-fluoro-2-(3-oxo-3-(pyrrolidin-1-yl)propylamino)quinazo-lin-4-yl)-2,5-dimethylpiperazin-1-yl)prop-2-en-1-one], “++ (++ indicates binding activity from 50 to 80%)”. On to `C=CC(=O)N1C[C@H](C)N(c2nc(N3CC(N(C)C)C3)nc3c(F)c(-c4c(C)ccc5[nH]nnc45)c(Cl)cc23)C[C@H]1C` [Compound 94, 1-((2R,5S)-4-(6-chloro-2-(3-(dimethylamino)azetidin-1-yl)-8-fluoro-7-(5-methyl-1H-benzo[d][1,2,3]triazol-4-yl)quinazolin-4-yl)-2,5-dimethylpiperazin-1-yl)prop-2-en-1-one], for which the Binding % entry is recorded as “++ (++ indicates binding activity from 50 to 80%)”. With `C=CC(=O)N1C[C@H](C)N(c2nc(N3CC(N(C)C)C3)nc3c(F)c(-c4c(C)ccc5onc(N)c45)c(Cl)cc23)C[C@H]1C` [Compound 95, 1-((2R,5S)-4-((R)-7-(3-amino-5-methylbenzo[d]isoxazol-4-yl)-6-chloro-2-(3-(dimethylamino)azetidin-1-yl)-8-fluoroquinazolin-4-yl)-2,5-dimethylpiperazin-1-yl)prop-2-en-1-one], the Binding % result was “+++ (+++ indicates binding activity greater than 80%)”.

On to `C=CC(=O)N1C[C@H](C)N(c2nc(N3CC(N(C)C)C3)nc3c(F)c(-c4c(C)ccc5onc(Cl)c45)c(Cl)cc23)C[C@H]1C` [Compound 99, 1-((2R,5S)-4-(6-chloro-7-(3-chloro-5-methylbenzo[d]isoxazol-4-yl)-2-(3-(dimethylamino)azetidin-1-yl)-8-fluoroquinazolin-4-yl)-2,5-dimethylpiperazin-1-yl)prop-2-en-1-one], for which the Binding % entry was “+ (+ indicates binding activity greater than 0% and up to 50%)”.

Values taken from patent publication US11377441B2, “Covalent inhibitors of KRAS” (Araxes Pharma LLC, priority 2017, dated 2022).
